From BindingDB's records for doi:10.1016/j.chembiol.2004.12.010 (National Institutes of Health, 2005) come the findings set out here.

Values joined by “and” are separate entries in the source; they are usually repeats but may differ in a detail not shown here. Identical values can stand only once.

Holding throughout (experiment): Binding Assay
For one assay, the target named is T1, Adenosine receptor A1 (Homo sapiens, UniProt P30542).
T1 sequence (P30542 whole entry): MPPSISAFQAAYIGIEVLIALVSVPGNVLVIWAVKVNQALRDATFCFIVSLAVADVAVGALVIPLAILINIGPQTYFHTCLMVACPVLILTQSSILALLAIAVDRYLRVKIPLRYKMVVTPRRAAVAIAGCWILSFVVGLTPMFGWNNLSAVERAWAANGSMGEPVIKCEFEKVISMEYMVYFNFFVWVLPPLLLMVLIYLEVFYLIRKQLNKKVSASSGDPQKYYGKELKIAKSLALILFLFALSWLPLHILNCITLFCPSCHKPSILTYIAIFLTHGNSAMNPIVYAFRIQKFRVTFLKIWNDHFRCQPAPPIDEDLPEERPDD
An excerpt:
(§1) Binding affinity of ligand at human adenosine receptors expressed in CHO cell.

Assay [1] addresses T2, Adenosine receptor A2a (Homo sapiens, UniProt P29274).
From the text: as §1

A further assay concerns the target T3, Adenosine receptor A2b (Homo sapiens, UniProt P29275).
T3 sequence (P29275 whole entry): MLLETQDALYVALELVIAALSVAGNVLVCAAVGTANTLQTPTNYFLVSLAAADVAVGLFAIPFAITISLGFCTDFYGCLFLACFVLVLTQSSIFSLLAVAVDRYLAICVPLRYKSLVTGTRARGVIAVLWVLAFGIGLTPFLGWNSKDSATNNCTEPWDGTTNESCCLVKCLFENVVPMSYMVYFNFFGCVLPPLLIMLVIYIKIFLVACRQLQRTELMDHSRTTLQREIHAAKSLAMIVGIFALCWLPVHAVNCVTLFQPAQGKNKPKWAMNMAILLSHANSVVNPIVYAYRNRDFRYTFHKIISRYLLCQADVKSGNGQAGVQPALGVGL
From the text: as §1

The target of a further assay is T4, Adenosine receptor A3 (Homo sapiens, UniProt P0DMS8).
T4 sequence (P0DMS8 whole entry): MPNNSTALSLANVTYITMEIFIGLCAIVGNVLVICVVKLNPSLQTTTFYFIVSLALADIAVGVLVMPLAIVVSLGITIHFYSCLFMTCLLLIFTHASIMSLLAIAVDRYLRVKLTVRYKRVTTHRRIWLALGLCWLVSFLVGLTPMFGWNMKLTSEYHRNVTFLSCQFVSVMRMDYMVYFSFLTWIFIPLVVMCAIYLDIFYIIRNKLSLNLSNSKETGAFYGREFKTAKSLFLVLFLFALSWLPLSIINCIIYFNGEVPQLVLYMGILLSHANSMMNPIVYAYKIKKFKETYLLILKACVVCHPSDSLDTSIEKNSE
From the text: as §1

In assay [2] the target is T2, Adenosine receptor A2a. To be noted: pH 7.4; 25 °C. From the text:
Binding affinity of ligand at WT and mutant human A2A ARs expressed in COS7 cell.

T2 sequence (P29274 whole entry): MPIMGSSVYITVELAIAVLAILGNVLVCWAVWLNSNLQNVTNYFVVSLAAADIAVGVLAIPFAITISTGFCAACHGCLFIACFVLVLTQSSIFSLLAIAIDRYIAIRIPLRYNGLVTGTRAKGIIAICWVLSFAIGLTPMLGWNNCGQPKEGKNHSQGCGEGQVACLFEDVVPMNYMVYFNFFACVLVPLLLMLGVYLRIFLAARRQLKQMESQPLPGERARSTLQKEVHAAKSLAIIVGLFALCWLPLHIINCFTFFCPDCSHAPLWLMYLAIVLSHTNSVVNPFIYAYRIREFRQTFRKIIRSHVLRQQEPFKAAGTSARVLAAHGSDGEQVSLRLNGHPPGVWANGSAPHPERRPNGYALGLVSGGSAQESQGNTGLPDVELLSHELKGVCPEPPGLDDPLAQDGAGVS

The Ki is a measure of affinity in units of concentration, obtained from inhibition or displacement. A word on the EC50: it is the concentration at which the effect is half-maximal. A higher EC50 goes with weaker potency. In the case of `NNC(=O)[C@H]1O[C@@H](n2cnc3c(N)ncnc32)[C@H](O)[C@@H]1O`, the results for the Ki on Adenosine receptor A1, on Adenosine receptor A2a [1] and at Adenosine receptor A3 were 171 nM, 2.23 µM and 378 nM, respectively. Moreover, at Adenosine receptor A2b, the EC50 came to 12 µM.
Consider `CCNC(=O)[C@H]1O[C@@H](n2cnc3c(N=C(N)N)ncnc32)[C@H](O)[C@@H]1O`, for which the Ki at Adenosine receptor A2a [2] is 4.51 µM and 5.68 µM and 0.773 µM and 1.14 µM; at Adenosine receptor A1, 7 nM; on Adenosine receptor A2a [1], 0.628 µM; on Adenosine receptor A3 it was 5.1 nM. Besides, the EC50 at Adenosine receptor A2b was found to be 0.0545 µM.
As to `NCCNC(=O)[C@H]1O[C@@H](n2cnc3c(N)ncnc32)[C@H](O)[C@@H]1O` [5'-N-[(2-AMINO)ETHYL CARBOXAMIDO] ADENOSINE], on Adenosine receptor A1, the inhibition constant (Ki) turned out to be 245 nM. In addition, on Adenosine receptor A2b, it took 15.6 µM to reach a half-maximal effect (EC50).
Consider `CNC(=O)[C@H]1O[C@@H](n2cnc3c(NCCN)ncnc32)[C@H](O)[C@@H]1O` [Adenosine analog, 5], for which the inhibitory constant (Ki) at Adenosine receptor A2a [2] is greater than 100 µM; on Adenosine receptor A1, 775 nM; on Adenosine receptor A2a [1] it was greater than 100 µM; at Adenosine receptor A3 it was 24600 nM. The compound also yielded an EC50 at Adenosine receptor A2b greater than 10 µM.
For the compound `NCCCNC(=O)[C@H]1O[C@@H](n2cnc3c(N)ncnc32)[C@H](O)[C@@H]1O` [Adenosine analog, 8], the Ki is greater than 100000 nM at Adenosine receptor A1, greater than 10 µM at Adenosine receptor A2a [1] and greater than 10000 nM on Adenosine receptor A3. This compound yielded an EC50 on Adenosine receptor A2b greater than 10 µM.
Regarding `NCCCCNC(=O)[C@H]1O[C@@H](n2cnc3c(N)ncnc32)[C@H](O)[C@@H]1O` [Adenosine analog, 9], the Ki at Adenosine receptor A2a [2] is > 100 µM and 55.2 µM and 48.1 µM; at Adenosine receptor A1, greater than 100000 nM; at Adenosine receptor A2a [1] it was greater than 100 µM; at Adenosine receptor A3 it was greater than 10000 nM. On Adenosine receptor A2b, this compound displayed an EC50 greater than 10 µM.
Consider `NCCCCCNC(=O)[C@H]1O[C@@H](n2cnc3c(N)ncnc32)[C@H](O)[C@@H]1O` [Adenosine analog, 10], for which the Ki at Adenosine receptor A2a [2] was > 100 µM and 124 µM; on Adenosine receptor A1 it was greater than 100000 nM; at Adenosine receptor A2a [1], greater than 100 µM; at Adenosine receptor A3, greater than 100000 nM. Moreover, the EC50 on Adenosine receptor A2b is greater than 10 µM.
The compound `Nc1ncnc2c1ncn2[C@@H]1O[C@H](C(=O)NCCO)[C@@H](O)[C@H]1O` [Adenosine analog, 11] returned an EC50 at Adenosine receptor A2b of 0.942 µM.
Turning to `Cc1ccccc1CNc1ncnc2c1ncn2[C@@H]1O[C@H](C(=O)NN)[C@@H](O)[C@H]1O` [Adenosine analog, 12], the Ki at Adenosine receptor A1 is greater than 10000 nM; at Adenosine receptor A2a [1], greater than 10 µM; on Adenosine receptor A3 it was 394 nM. The compound also gave an EC50 on Adenosine receptor A2b greater than 100 µM.
As to `CCNC(=O)[C@H]1O[C@@H](n2cnc3c(NCc4ccccc4C)ncnc32)[C@H](O)[C@@H]1O` [Adenosine analog, 13], the Ki on Adenosine receptor A1 was 106 nM; on Adenosine receptor A2a [1], 5.43 µM; on Adenosine receptor A3, 78.8 nM. On Adenosine receptor A2b, this compound gave an EC50 greater than 1 µM.
Take `Cc1ccccc1CNc1ncnc2c1ncn2[C@@H]1O[C@H](C(=O)NCCN)[C@@H](O)[C@H]1O` [Adenosine analog, 14]: the Ki at Adenosine receptor A1 is greater than 10000 nM; on Adenosine receptor A2a [1], 55.9 µM; on Adenosine receptor A3, greater than 10000 nM. The EC50 on Adenosine receptor A2b is greater than 1 µM.
Regarding `Cc1ccccc1CNc1ncnc2c1ncn2[C@@H]1O[C@H](C(=O)NCCO)[C@@H](O)[C@H]1O` [Adenosine analog, 15], the figures for the Ki at Adenosine receptor A1, on Adenosine receptor A2a [1] and on Adenosine receptor A3 were 368 nM, greater than 10 µM and 1640 nM, respectively. The same compound showed an EC50 on Adenosine receptor A2b of 3.72 µM.
`Cc1ccccc1CNc1ncnc2c1ncn2[C@@H]1O[C@H](CO)[C@@H](O)[C@H]1O` [Adenosine analog, 16]: the Ki at Adenosine receptor A1 was 39.3 nM; at Adenosine receptor A2a [1], 0.764 µM; on Adenosine receptor A3 it was 47.2 nM.
With `CNc1nc(N)nc2c1ncn2[C@@H]1O[C@H](CO)[C@@H](O)[C@H]1O` [Adenosine analog, 17], the Ki on Adenosine receptor A2a [2] is greater than 100 µM; on Adenosine receptor A1, 484 nM; at Adenosine receptor A2a [1], greater than 10 µM; at Adenosine receptor A3 it was 39 nM. The EC50 at Adenosine receptor A2b is greater than 10 µM.
For `CNc1nc(CN)nc2c1ncn2[C@@H]1O[C@H](CO)[C@@H](O)[C@H]1O` [Adenosine analog, 18], the Ki on Adenosine receptor A2a [2] was greater than 100 µM; on Adenosine receptor A1 it was greater than 10000 nM; at Adenosine receptor A2a [1] it was greater than 10 µM; at Adenosine receptor A3, 719 nM. In addition, at Adenosine receptor A2b, the EC50 is greater than 10 µM.
Turning to `CNc1nc(C(=N)N)nc2c1ncn2[C@@H]1O[C@H](CO)[C@@H](O)[C@H]1O` [Adenosine analog, 19], the Ki at Adenosine receptor A2a [2] is greater than 100 µM; at Adenosine receptor A1, greater than 10000 nM; at Adenosine receptor A2a [1], greater than 10 µM; at Adenosine receptor A3 it was 2730 nM. This compound returned an EC50 at Adenosine receptor A2b greater than 10 µM.
